Assay results: US6046228A, “Anti-viral pharmaceutical compositions containing saturated 1,2-dithiaheterocyclic compounds and uses thereof” (priority 1999, dated 2000)

Legend:
HIV-1 N119(Nev^R) = assay: XTT cytopathicity assay, nevirapine-resistant N119; format: cell-based; conditions: CEM-SS
Procedure: (§1) Initial anti-HIV screening was performed with CEM-SS cells and HIV-1RFusing the XTT cytoprotection assay as previously described (Weislow et al., J. National Cancer Inst. 81: 577-586, (1989)). HIV-1 isolates included common laboratory stains (RF, IIIB and MN), as well as a panel of HIV-1 clinical isolates (Cushman et al., J. Med. Chem. 37: 3040-3050, (1994)). The pyridone-resistant HIV-1A17 isolate (Nunberg et al., J. Virol., 65: 4887-4892 (1991)) was obtained from Emilio Emini at Merck Sharpe and Dohme Laboratories. Phytohemagglutinin-stimulated human peripheral blood lymphocytes (PBLs) and fresh monocyte-macrophage (Mono/MF) cultures were prepared and utilized in antiviral assays as previously described (Rice et al., Proc. Nat'l. Academy Science, USA 90: 9721-9724, (1993)); (Cushman et al., J. Med. Chem. 37: 3040-3050, (1994)). EC50 values for these cultures indicate the drug concentration that provided a 50% reduction in viral p24 production. […] The compounds can be synthesized according to the teachings of Singh et al., Sulfur Letters 8: 107-114, (1988). The 4,5-cis-dihydroxy(1,1-dioxy-1,2,-dithiohexane) compound (NSC 624151) has been abbreviated as 624151 for convenience. […]

Pr55^gag = assay: immunoblot of viral proteins in U1 cells (Gag precursor processing); format: cell-based, HIV-1; conditions: FIG. 3(B), in words
Procedure: U1 cells latently infected with two copies of HIV-1 proviral DNA per cell (Clous et al., J. Immunol. 142: 431-438, (1989)) were treated with 5 ng/ml tumor necrosis factor-α(TNF-α) for 24 hours to stimulate production of HIV-1 virions, after which various concentrations of 624151 were added to the cultures and incubated for an additional 48 hours. Cultures were analyzed for cell viability by the XTT reduction assay and cells were counted and scored for viability by trypan blue exclusion. Cells pellets were lysed (0.5% Triton X-100, 300 mM NaCl, 50 mM Tris-HCl, pH 7.6, 10 μg/ml each of Leupeptin and aprotinin (Boehringer Mannheim), 1.8 mg/ml iodoacetamide (Sigma Chemical Co., St. Louis, Mo.) and 1.0 mg/ml the protease inhibitor Pefabloc SC (Boehringer Mannheim at 4° C. for 15 min. and then quantitated for viral p24 content by ELISA. Cell-free supernatant samples were collected and analyzed for virus content by p24 ELISA, and infectivity in cultures of 174xCEM cells. Briefly, serial 1/2 dilutions of the supernatant were placed with 5×10^3 174xCEM cells and cultured for 7 days, cell supernatants were analyzed for viral p24 content, and the number of infectious units/ml calculated. In addition, cell free supernatants were centrifuged at 17,000×g for 1 hour at 4° C. to collect virion pellets. […]

HIV-1 6R(AZT^R) = assay: XTT cytopathicity assay, AZT-resistant 6R; format: cell-based; conditions: MT-4, 6R(AZT^R)
Procedure: as §1

HIV-1 p7NC protein = target: T1, HIV-1 p7NC protein (Human immunodeficiency virus type 1 group M subtype B, UniProt P04591); assay: TSQ zinc release assay from p7NC; format: biochemical; conditions: 10 μM, 2 hours, FIG. 1(B), in words
T1 construct: recombinant HIV-1 p7NC protein
Procedure: Fluorescence measurements of the Trp^37 residue in the C-terminal zinc finger of the recombinant HIV-1 p7NC protein were performed as previously described (Rice et al., Science 270:1194, 1995). The p7NC protein was prepared at 20 μg/ml in 10 mM sodium phosphate buffer (pH 7.0), treated with 25 μM of each compound, then after indicated time intervals the samples were diluted 1/10 in 10 mM sodium phosphate buffer (pH 7.0) and the fluorescence intensity measured. The excitation and emission wavelengths utilized with the Shimadzu RF5000 spectrofluorimeter were 280 nm and 351 nm, respectively. In an alternate assay, the zinc-selective fluorescent probe N-(6-methoxy-8quinolyl-)-p-toluenesulfonamide (TSQ, Molecular Probes, Eugene, Oreg.) originally described by Fredrickson (J. Neurosci. Meth. 20:91, 1987) was utilized to measure zinc released from the p7NC protein in vitro. Briefly, 2 μM recombinant HIV-1 p7NC protein in 10 mM sodium phosphate buffer, pH 7.0, 10% glycerol was treated with 10 μM 624151 ([…] total volume in 96-well plates), and the time-dependent increase in fluorescence was measured on a Labsystems Fluoroskan II (360 nm excitation filter and 460 nm emission filter) over a period of 2 hours. […] Virus pellets were resolved by non-reducing SDS-PAGE and analyzed by immunoblot using monospecific rabbit antisera to the purified p7NC protein. […]

O=S1(=O)C[C@H](O)[C@H](O)CS1 (relative stereo) [NSC 624151, cis-1,1-dioxo[1,2]dithiane-4,5-diol]
EC50 (HIV-1 N119(Nev^R)): 18 µM
Pr55^gag processing to p41, p24, p9 and p7 proteins (Pr55^gag): prevents processing of precursor proteins to mature viral proteins
Pr55^gag processing to p41, p24, p9 and p7 proteins (Pr55^gag; listed as 624151): decrease in Pr55^gag processing to the p41, p24, p9 and p7 proteins
EC50 (HIV-1 6R(AZT^R)): 7.2 µM
zinc ejection from p7NC measured with TSQ (HIV-1 p7NC protein): promote zinc ejection from the p7NC protein in vitro was confirmed
